Experimental data from patent US20260183302A1, “PDK1 REGULATORY COMPOUND AND COMPOSITION CONTAINING THE SAME” (PROVIBIO CO., LTD., priority 2024, published 2026).

Key:
[1] = molecular target: T1, full-length PDK1 (PDK1-FL) (Homo sapiens, UniProt O15530); test: Binding affinity by Microscale Thermophoresis (MST), full-length PDK1; conditions: Kd full-length vs PKD fragment
T1 construct: the full-length (PDK1-FL) protein of human-derived PDK1; His tag (inferred by me from the Ni-NTA purification); made in house; host or cells: Sf9 insect cells, baculovirus
T1 sequence (O15530 1-556): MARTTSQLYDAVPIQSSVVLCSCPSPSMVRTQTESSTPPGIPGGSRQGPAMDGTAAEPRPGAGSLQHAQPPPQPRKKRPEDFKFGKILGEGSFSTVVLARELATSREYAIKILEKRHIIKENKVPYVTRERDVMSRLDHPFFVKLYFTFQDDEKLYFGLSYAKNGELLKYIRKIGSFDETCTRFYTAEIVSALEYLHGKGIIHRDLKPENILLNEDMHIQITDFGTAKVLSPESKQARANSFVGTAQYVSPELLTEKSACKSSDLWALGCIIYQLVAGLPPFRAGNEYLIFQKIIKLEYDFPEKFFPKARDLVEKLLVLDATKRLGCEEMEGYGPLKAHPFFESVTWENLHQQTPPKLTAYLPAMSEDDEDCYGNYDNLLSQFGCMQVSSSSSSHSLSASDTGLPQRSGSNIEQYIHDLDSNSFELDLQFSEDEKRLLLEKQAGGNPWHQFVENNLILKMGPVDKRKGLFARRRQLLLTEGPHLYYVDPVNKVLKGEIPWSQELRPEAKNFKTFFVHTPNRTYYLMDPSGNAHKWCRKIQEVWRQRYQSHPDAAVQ
Method: Microscale Thermophoresis (MST) analysis was performed to quantitatively measure the binding affinity between PDK1 protein and substrate peptides (PDKTide) or the company-developed low-molecular-weight compound (GO88).
The target proteins were the full-length (PDK1-FL) protein of human-derived PDK1 and the Protein Kinase Domain (PKD) fragment, which were expressed using a baculovirus expression system in insect cell lines (Sf9).
The purity of the purified proteins was confirmed by SDS-PAGE and Coomassie Brilliant Blue staining.
The purified protein was labeled with a fluorescent label using the Monolith NT™ RED-NHS Protein Fluorescent Labeling Kit (NanoTemper).
Specifically, 20 µM of the protein was dissolved in PBS (pH 7.4) buffer, mixed with the fluorescent reagent, and reacted at room temperature under dark conditions for 30 minutes. The mixture was then buffered with MST analysis buffer (50 mM HEPES, 150 mM NaCl, 1 mM DTT, 0.05% Tween-20, pH 7.5). […]
The reaction samples were injected into an MST-specific capillary (NanoTemper) and analyzed using a Monolith NT.115 device (NanoTemper) under laser intensity conditions. […]
The measured data were analyzed using MO. Affinity Analysis software (NanoTemper), and the dissociation constant (Kd) was calculated from the binding curve.

[2] = test system: T cells isolated from mouse spleens; test: T cell proliferation inhibition (CFSE flow cytometry, anti-CD3/anti-CD28 stimulation); assay type: cell-based, C57BL/6 mice; conditions: three days
Outline: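 Splenic T cells from 7-week-old C57BL/6 mice, CFSE-labelled, 2× 10^5 cells/well, stimulated with anti-CD3 and anti-CD28 (0.5 μg/mL each). Compound at 10 nM-50 μM in triplicate for three days at 37 °C, 5% CO2; proliferation inhibition (%) derived by flow cytometry.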

[3] = test system: Human Bladder cancer cell, T24; test: Relative cell viability, T24 (CCK-8); assay type: cell-based; conditions: 48 hours
Method: Human-derived breast cancer cell line MCF-7, human-derived lung cancer cell line A549, human-derived colorectal cancer cell line HCT-116, human pancreatic cancer cell line AsPC-1, glioblastoma cell line A172, and melanoma cell line Malme-3M were obtained from the Korean Cell Bank. gastric cancer cell line SNU-719, and bladder cancer cell line T24 were cultured in RPMI-1640 medium containing 10% FBS.
Following stabilization, the cells were harvested using Trypsin-EDTA treatment, centrifuged at 1,200 rpm for 3 minutes, the supernatant was removed, and the cells were resuspended in the same medium. They were then seeded into a 96-well plate (Costar 96-well cell culture plate, Corning) at 100 μL per well, and the conditions were adjusted as indicated in Table 5.
The cells were cultured in a 5% CO2 incubator at 37° C. for 24 hours, and after stabilization of the cells, each plate was washed with 200 μL of PBS per well and treated with 50 μL of culture medium per well. […]
After that, 10 μL of CCK-8 was added to each well, and the plate was incubated again at 37° C. in a 5% CO2 incubator for 2 hours.
In other words, when the survival rate of untreated cells (DMSO) is set at 100%, the relative cell survival rate in each group treated with the drug at different concentrations is indicated.

Row | Compound | binding affinity of full-length PDK1 compared to the PDK fragment [1] | Proliferation inhibition rate (%) ([2]; concentration 10 nM) | Proliferation inhibition rate (%) ([2]; concentration 100 nM) | Proliferation inhibition rate (%) ([2]; concentration 1 μM) | Proliferation inhibition rate (%) ([2]; concentration 10 μM) | Proliferation inhibition rate (%) ([2]; concentration 30 μM) | Proliferation inhibition rate (%) ([2]; concentration 50 μM) | Relative cell viability (%) ([3]; T24, 1 μM) | Relative cell viability (%) ([3]; T24, 10 μM) | Relative cell viability (%) ([3]; T24, 30 μM) | Relative cell viability (%) ([3]; T24, 50 μM)
1 | Nc1ncccc1C(=O)NCCCCCCCCCCCCN1CCNCC1 [Compound 14, 2-Amino-N-(12-(piperazin-1-yl)dodecyl)nicotinamide] | approximately six times stronger | – | – | – | – | – | – | – | – | – | –
2 | 12-[4-(2,2-dimethylmorpholin-4-yl)]dodecyl-N-(6-aminopurine-2-yl) carboxamide [Compound 11] | – | −25.47% | 100.00% | 100.00% | 100.00% | 100.00% | 100.00% | 28.15% | 31.17% | 30.42% | 29.34%
